Experimental data as given in PubChem BioAssay (NCI).
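1) Cells in 96-well plates. 2) Compound, 48 h, 5 concentrations. 3) Linear interpolation between surrounding doses. 4) Unreached endpoint = highest concentration. GI50 is the concentration that inhibits growth by half. The concentration for full growth arrest is given as TGI.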

Tests used:
Test in all cases: growth of human tumour cells (NCI), 48 h
SF-539 CNS = system: SF-539 CNS
MOLT-4 leukemia = system: MOLT-4 leukemia
SNB-19 CNS = system: SNB-19 CNS
HCT-116 colon = system: HCT-116 colon
SK-MEL-5 melanoma = system: SK-MEL-5 melanoma
OVCAR-4 ovarian = system: OVCAR-4 ovarian
U251 CNS = system: U251 CNS
HCT-15 colon = system: HCT-15 colon
SN12C renal = system: SN12C renal
UACC-62 melanoma = system: UACC-62 melanoma
CCRF-CEM leukemia = system: CCRF-CEM leukemia
SW-620 colon = system: SW-620 colon
UACC-257 melanoma = system: UACC-257 melanoma
BT-549 breast = system: BT-549 breast
OVCAR-8 ovarian = system: OVCAR-8 ovarian
NCI-H23 lung = system: NCI-H23 lung
M14 melanoma = system: M14 melanoma
SF-295 CNS = system: SF-295 CNS
HCC-2998 colon = system: HCC-2998 colon
SNB-75 CNS = system: SNB-75 CNS
NCI-H460 lung = system: NCI-H460 lung
KM12 colon = system: KM12 colon
T-47D breast = system: T-47D breast
CAKI-1 renal = system: CAKI-1 renal
HOP-92 NSCLC = system: HOP-92 NSCLC
OVCAR-5 ovarian = system: OVCAR-5 ovarian
PC-3 prostate = system: PC-3 prostate
SK-OV-3 ovarian = system: SK-OV-3 ovarian
HOP-62 NSCLC = system: HOP-62 NSCLC
A549 NSCLC = system: A549 NSCLC
NCI/ADR-RES ovarian = system: NCI/ADR-RES ovarian
MDA-MB-231 breast = system: MDA-MB-231 breast
NCI-H226 lung = system: NCI-H226 lung
HL-60(TB) leukemia = system: HL-60(TB) leukemia
HS 578T breast = system: HS 578T breast
RPMI-8226 leukemia = system: RPMI-8226 leukemia
K-562 leukemia = system: K-562 leukemia
OVCAR-3 ovarian = system: OVCAR-3 ovarian
MDA-MB-435 = system: MDA-MB-435
LOX IMVI melanoma = system: LOX IMVI melanoma
SK-MEL-28 melanoma = system: SK-MEL-28 melanoma
RXF 393 renal = system: RXF 393 renal
SK-MEL-2 melanoma = system: SK-MEL-2 melanoma
HT29 colon = system: HT29 colon
UO-31 renal = system: UO-31 renal
A498 renal = system: A498 renal
MCF7 breast = system: MCF7 breast
IGROV1 ovarian = system: IGROV1 ovarian
MDA-MB-468 breast = system: MDA-MB-468 breast
SF-268 CNS = system: SF-268 CNS
MALME-3M melanoma = system: MALME-3M melanoma
TK-10 renal = system: TK-10 renal
NCI-H522 lung = system: NCI-H522 lung
DU-145 prostate = system: DU-145 prostate
SR leukemia = system: SR leukemia
ACHN renal = system: ACHN renal
786-0 renal = system: 786-0 renal
COLO 205 colon = system: COLO 205 colon
EKVX NSCLC = system: EKVX NSCLC

Cc1cc2c(cc1Cl)C(=O)/C(=C/c1ccccc1)O2
GI50 (SF-539 CNS): 15.7 µM | TGI (SF-539 CNS): 29.1 µM | GI50 (MOLT-4 leukemia): 17.9 µM | TGI (MOLT-4 leukemia): 46 µM | GI50 (SNB-19 CNS): 26.5 µM | TGI (SNB-19 CNS): > 100 µM | GI50 (HCT-116 colon): 15.4 µM | TGI (HCT-116 colon): 62.9 µM | GI50 (SK-MEL-5 melanoma): 15.6 µM | TGI (SK-MEL-5 melanoma): 30.9 µM | GI50 (OVCAR-4 ovarian): 16.8 µM | TGI (OVCAR-4 ovarian): 61.3 µM | GI50 (U251 CNS): 13.1 µM | TGI (U251 CNS): 28.7 µM | GI50 (HCT-15 colon): 14.2 µM | TGI (HCT-15 colon): 85.4 µM | GI50 (SN12C renal): 13.9 µM | TGI (SN12C renal): 33.1 µM | GI50 (UACC-62 melanoma): 15.9 µM | TGI (UACC-62 melanoma): 49.9 µM | GI50 (CCRF-CEM leukemia): 18.7 µM | TGI (CCRF-CEM leukemia): 49.2 µM | GI50 (SW-620 colon): 16.8 µM | TGI (SW-620 colon): 48.3 µM | GI50 (UACC-257 melanoma): 23.4 µM | TGI (UACC-257 melanoma): > 100 µM | GI50 (BT-549 breast): 16.7 µM | TGI (BT-549 breast): 45.3 µM | GI50 (OVCAR-8 ovarian): 16.5 µM | TGI (OVCAR-8 ovarian): 44.1 µM | GI50 (NCI-H23 lung): 15.4 µM | TGI (NCI-H23 lung): 44.8 µM | GI50 (M14 melanoma): 26 µM | TGI (M14 melanoma): > 100 µM | GI50 (SF-295 CNS): 26 µM | TGI (SF-295 CNS): > 100 µM | GI50 (HCC-2998 colon): 31.6 µM | TGI (HCC-2998 colon): > 100 µM | GI50 (SNB-75 CNS): 9.27 µM | TGI (SNB-75 CNS): 57.7 µM | GI50 (NCI-H460 lung): 16 µM | TGI (NCI-H460 lung): 35.6 µM | GI50 (KM12 colon): 31.3 µM | TGI (KM12 colon): > 100 µM | GI50 (T-47D breast): 13.6 µM | TGI (T-47D breast): 35.3 µM | GI50 (CAKI-1 renal): 15.5 µM | TGI (CAKI-1 renal): 31.1 µM | GI50 (HOP-92 NSCLC): 17.7 µM | TGI (HOP-92 NSCLC): 44.6 µM | GI50 (OVCAR-5 ovarian): 23.2 µM | TGI (OVCAR-5 ovarian): > 100 µM | GI50 (PC-3 prostate): 11.1 µM | TGI (PC-3 prostate): 70.6 µM | GI50 (SK-OV-3 ovarian): 62.3 µM | TGI (SK-OV-3 ovarian): > 100 µM | GI50 (HOP-62 NSCLC): 22.8 µM | TGI (HOP-62 NSCLC): 52.8 µM | GI50 (A549 NSCLC): 16.6 µM | TGI (A549 NSCLC): 37.8 µM | GI50 (NCI/ADR-RES ovarian): 15.7 µM | TGI (NCI/ADR-RES ovarian): 38.6 µM | GI50 (MDA-MB-231 breast): 16.5 µM | TGI (MDA-MB-231 breast): 39.4 µM | GI50 (NCI-H226 lung): 12.8 µM | TGI (NCI-H226 lung): 31.5 µM | GI50 (HL-60(TB) leukemia): 22.3 µM | TGI (HL-60(TB) leukemia): 46.7 µM | GI50 (HS 578T breast): 29.2 µM | TGI (HS 578T breast): > 100 µM | GI50 (RPMI-8226 leukemia): 22.4 µM | TGI (RPMI-8226 leukemia): > 100 µM | GI50 (K-562 leukemia): 27.6 µM | TGI (K-562 leukemia): > 100 µM | GI50 (OVCAR-3 ovarian): 25.5 µM | TGI (OVCAR-3 ovarian): 93.1 µM | GI50 (MDA-MB-435): 21.5 µM | TGI (MDA-MB-435): 59.6 µM | GI50 (LOX IMVI melanoma): 1.9 µM | TGI (LOX IMVI melanoma): 4.19 µM | GI50 (SK-MEL-28 melanoma): 23.7 µM | TGI (SK-MEL-28 melanoma): 76.3 µM | GI50 (RXF 393 renal): 15 µM | TGI (RXF 393 renal): 33.6 µM | GI50 (SK-MEL-2 melanoma): 20.6 µM | TGI (SK-MEL-2 melanoma): 72 µM | GI50 (HT29 colon): 29 µM | TGI (HT29 colon): > 100 µM | GI50 (UO-31 renal): 13.9 µM | TGI (UO-31 renal): 26.8 µM | GI50 (A498 renal): 49.3 µM | TGI (A498 renal): > 100 µM | GI50 (MCF7 breast): 2.7 µM | TGI (MCF7 breast): 57.4 µM | GI50 (IGROV1 ovarian): 14 µM | TGI (IGROV1 ovarian): 30.9 µM | GI50 (MDA-MB-468 breast): 13.2 µM | TGI (MDA-MB-468 breast): 40.5 µM | GI50 (SF-268 CNS): 25.1 µM | TGI (SF-268 CNS): 89.2 µM | GI50 (MALME-3M melanoma): 17.4 µM | TGI (MALME-3M melanoma): 31.7 µM | GI50 (TK-10 renal): 23.5 µM | TGI (TK-10 renal): 40.6 µM | GI50 (NCI-H522 lung): 13 µM | TGI (NCI-H522 lung): 30.7 µM | GI50 (DU-145 prostate): 16.9 µM | TGI (DU-145 prostate): 33.7 µM | GI50 (SR leukemia): 20.9 µM | TGI (SR leukemia): 54.8 µM | GI50 (ACHN renal): 15.1 µM | TGI (ACHN renal): 29 µM | GI50 (786-0 renal): 20 µM | TGI (786-0 renal): 40.5 µM | GI50 (COLO 205 colon): 24.6 µM | TGI (COLO 205 colon): 51.9 µM | GI50 (EKVX NSCLC): 16.5 µM | TGI (EKVX NSCLC): 33.1 µM
